Laboratory results published in PubChem BioAssay AID1333 (NMMLSC, 2008).

Molecular target: Cell division control protein 42 homolog (Homo sapiens) (UniProt P60953)
Assay: activated mutant Cdc42 GTP-binding inhibitors, dose response, biochemical, multiplex bead flow cytometry, Bodipy-FL-GTP (AID 1333);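 also: potency of compounds that compete with and reduce fluorescent GTP binding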
Settings: bead-based flow cytometry

SMILES | EC50 [µM]
NS(=O)(=O)c1ccc(N2N=C(c3ccccc3)CC2c2cccc(F)c2)cc1 (configuration not stated) | 9.59
Cc1cccc2cc(CN(Cc3cccs3)C(c3nnnn3C3CCCC3)C(C)C)c(=O)[nH]c12 (configuration not stated) | 1.63
CCCN1C(=O)/C(=C/C=C2\N(CC)c3ccccc3C2(C)C)SC1=S | 5.59
O=C(C#Cc1ccc(F)cc1)c1ccc([N+](=O)[O-])cc1 | 3.55
O=C(O)/C=C/c1cn(Cc2ccccc2)nc1-c1cccs1 | 2.18
OC(CNCCc1ccc(Cl)cc1)COc1ccc2ccccc2c1 (configuration not stated) | 11.3
Cc1nc2c(=O)n(C)c(=O)nc-2n(C)n1 | 1.61
Cc1cc(C)c(C)c(C(=O)c2ccccc2C(=O)O)c1C | 4.95
COc1cccc(-n2nnnc2S(C)(=O)=O)c1 | 15.4
O=C(O)c1cc(Sc2ccc(Cl)cc2)nc2ccccc12 | 18.7
O=C(C#Cc1ccccc1)c1cccc([N+](=O)[O-])c1 | 13.5
O=C(NCc1cccs1)c1cccnc1C(=O)O | 4.31
Cc1nn(Cc2ccccc2)c(Cl)c1C(=O)O | 13.9
COc1ccc(C2CC(c3ccccc3)=NN2c2ccc(S(N)(=O)=O)cc2)cc1 (configuration not stated) | 8.04
COC(=O)c1cccnc1SCCc1ccccc1 | 24.2
CCOc1ccc(/C=C2\SC(N3CCc4ccccc4C3)=NC2=O)cc1 | 16.5
COc1cccc(NC(=O)COC(=O)/C=C/c2ccc(Cl)cc2Cl)c1 | 3.53
CCn1nc(/C=C/c2ccccc2)nc2c(=O)n(C)c(=O)nc1-2 | 1.44
O=C(Nc1ccccc1)C1=C(c2ccccc2)S(=O)(=O)CCS1(=O)=O | 43.9

SMILES | EC50 [µM]
CS(=O)(=O)c1ccc(C(=O)OCC(=O)NC(=O)C2CCCCC2)cc1[N+](=O)[O-] | 12.9
Cc1ccc(NC(=O)C2=C(c3ccccc3)S(=O)(=O)CCS2(=O)=O)cc1 | 58.7
O=C(O)c1ccccc1Sc1ncnc2sc3c(c12)CCC3 | 1.84
Cc1ccc(-n2c(-c3cnccn3)n[nH]c2=S)c(Br)c1 | 53.8
CC(C)C(NCc1c(Cl)cccc1Cl)C(=O)O (configuration not stated) | 5.85
CCOC(=O)c1cc([N+](=O)[O-])c([N+](=O)[O-])cc1NC(C)=O | 7.18
COc1ccc(-c2cc(C#N)nc(N3CCNCC3)n2)cc1 | 27.1
Cc1cc(C(=O)Cn2nc(C(=O)O)c3ccccc3c2=O)c(C)n1-c1ccc(OC(F)F)cc1 | 4.89
N#Cc1c(-c2ccccc2)nc(SCC(=O)Nc2ccccc2)[nH]c1=O | 1.66
O=C(C#CC1CCCCC1)c1ccc([N+](=O)[O-])cc1 | 45.9
Cc1ccc(SC(CC(=O)c2ccc(C(C)(C)C)cc2)C(=O)O)cc1 (configuration not stated) | 5.11
O=C(O)c1ccccc1NCCc1ccc(Cl)cc1 | 0.885
O=C(Nc1nnc(-c2ccc3c(c2)OCCO3)o1)c1ccc(Cc2ccccc2)cc1 | 2.79
O=C(NCc1ccc2c(c1)OCO2)c1ccc(CSCc2cccc(Cl)c2)o1 | 20.6
CCCc1nc2c(=O)n(C)c(=O)nc-2n(C)n1 | 1.77
CC(=O)c1ccc(C#CC(=O)c2ccc([N+](=O)[O-])cc2)cc1 | 0.989
Cc1ccc(C)c(OCCn2cc(C(=O)O)c3ccccc32)c1 | 0.358
CCc1ccc(NS(=O)(=O)c2ccc3[nH]cc(C(=O)N4CCc5ccccc54)c(=O)c3c2)cc1 | 50.1
